The subject of assay [1] is MEPCE. Description: MEPCE expression after treatment with CDK9 / transcription elongation inhibitors (FIG. 3). Format: cell-based.
Another assay has as its system MCL1 protein. Description: Western blot of anti-apoptotic and pro-apoptotic family members (FIG. 5). In kind it is cell-based. The conditions noted are these: lung cancer cell line. As for the experimental part:
After treatment with a CDKI, cells were lysed in modified RIPA buffer containing 50 mM TRIS pH 7.4, 150 mM NaCl, 1 mM EDTA, 1% Brij-35, 0.1% deoxycholate, protease inhibitors (Roche Molecular Biochemicals, Mannheim, Germany). SDS-PAGE (4-12% gel) was used to resolve the proteins in the lysate. After electrophoresis, the proteins were electrotransferred onto a polyvinylidene fluoride microporous membrane and immunodetected using standard procedures. FIG. 4 is a Western blot of the multiple myeloma line NCI-H929, treated with CDKI(7) or DMSO and gene expression analyzed at certain time points during the treatment. […] Thus, the reduction in expression of genes in response to CDKI seen at the mRNA level by microarray is confirmed at the protein level by Western blotting.
FIG. 5 is a Western blot comparing the reduction of expression of anti-apoptotic and pro-apoptotic family members after treatment with CDKI(8).

Assay [2] concerns MEPCE. In words: Dog toxicology study, TaqMan mRNA in white blood cells after CDKI(12): MEPCE. Format: in vivo. As for the experimental part:
(§1) As part of a dog toxicology study, the pharmacodynamic markers MEPCE, MYC and MCL1 were measured by TaqMan® in white blood cells at various time points after CDKI(12) treatment.
The study had three groups of three dogs each. Dogs in Group 1 (#1001, #1002, and #1003) were treated with vehicle, dogs in Group 3 (#3001, #3002, and #3003) were treated with CDKI(12) at 0.1 mg/kg and dogs in Group 5 (#5001, #5002, and #5003) were treated with CDKI(12) at 0.15 mg/kg. Samples were collected before treatment 0 hour timepoint; 4 hours, 8 hours and 24 hours after treatment, for a total of 12 samples per group. Blood samples were received frozen in QIAGEN RNAprotect® Animal Blood tubes (Cat. #76554). RNA samples were extracted using the QIAGEN RNeasy® Protect Animal Blood kit (Cat. #73224). RNA samples were quantified using the RNA Quant-iT RNA assay® from Invitrogen (Cat. #Q32852) and read on an Invitrogen Qubit fluorometer (Cat. #Q32857). First strand cDNA synthesis was performed on 500 ng of RNA in a reaction volume of 20 μl using a High Capacity cDNA Reverse Transcription Kit from Applied Biosystems (Cat. #4368814). The cDNA samples were then diluted to 2 ng/μl (10 ng in 5 μl in each reaction). Each TaqMan® reaction contained: 5 μl of cDNA, 1.25 μl of each probe (18S rRNA and gene of interest), 5 μl of water and 12.5 μl of TaqMan® Gene Expression Master Mix from Applied Biosystems (Cat. #4369016) for a total volume of 25 μl. TaqMan® reactions were run in triplicates on an ABI 7500® machine. The 18S rRNA level was used as an endogenous control to correct for variations in cDNA input. The relative quantification method was used to analyze the data; this method uses one sample as a calibrator sample and express mRNA levels relative to that sample. The results are expressed as RQ values (Relative Quantification) with RQ Min and RQ Max values determining a 95% confidence interval for the RQ value. The samples were grouped according to treatment and time point and data from three dogs, each measured in triplicate, were averaged. The vehicle group at 0 hour timepoint was used as the calibrator sample thus allowing us to measure changes in mRNA levels in response to the test article at various time points. The logarithm of the RQ values are plotted so that increases or decreases from the initial value can be more easily represented; on a logarithmic scale a 10-fold increase or 10-fold decrease in RQ value are represented as +1 and −1 respectively.
We have previously shown that the MEPCE mRNA is particularly sensitive to CDK9 inhibition and any CDKI (see Examples above). […] The mRNA levels were determined by TaqMan® using the relative quantification method. The calibrator sample is vehicle at 0 hour timepoint. […]

For a further assay, the system named is MYC. Description: Dog toxicology study, TaqMan mRNA in white blood cells after CDKI(12): MYC. Format: in vivo. The conditions noted are these: any of the tested doses (0.1, 0.15 mg/kg), FIG. 10. As for the experimental part: as §1
(§2) The study had three groups of three dogs each. Dogs in Group 1 (#1001, #1002, and #1003) were treated with vehicle, dogs in Group 3 (#3001, #3002, and #3003) were treated with CDKI(12) at 0.1 mg/kg and dogs in Group 5 (#5001, #5002, and #5003) were treated with CDKI(12) at 0.15 mg/kg. Samples were collected before treatment 0 hour timepoint; 4 hours, 8 hours and 24 hours after treatment, for a total of 12 samples per group. Blood samples were received frozen in QIAGEN RNAprotect® Animal Blood tubes (Cat. #76554). RNA samples were extracted using the QIAGEN RNeasy® Protect Animal Blood kit (Cat. #73224). RNA samples were quantified using the RNA Quant-iT RNA assay® from Invitrogen (Cat. #Q32852) and read on an Invitrogen Qubit fluorometer (Cat. #Q32857). […] The relative quantification method was used to analyze the data; this method uses one sample as a calibrator sample and express mRNA levels relative to that sample. The results are expressed as RQ values (Relative Quantification) with RQ Min and RQ Max values determining a 95% confidence interval for the RQ value. The samples were grouped according to treatment and time point and data from three dogs, each measured in triplicate, were averaged. […]
A general note: In qPCR the cycle at which signal appears reflects the starting amount.

A further assay has as its system MCL1. In words: Dog toxicology study, TaqMan mRNA in white blood cells after CDKI(12): MCL1. Format: in vivo. The conditions noted are these: any of the tested doses (0.1, 0.15 mg/kg), two probes, FIG. 11. As to the method:
as §1, §2

Molecules are shown by their SMILES. Entries after “also recorded” stand apart in the source; their conditions may differ. Starred links: 1 amine or outer side, 2 acyl side, 3 side chain; linkers in the order of their positions; H or OH if unused. Positions of bridges follow the written chain, without caps; N, C: chain ends. Non-standard residues stand in square brackets, D forms with d. Residues, ends and D or L forms follow the SMILES beside them. Chains are numbered I, II in the order given. Actinocin(9to1) = Cc1c2oc3c(C)ccc(C(=O)[*:1])c3nc-2c(C(=O)[*:2])c(N)c1=O; NMeV = CN[C@H](C(=O)O)C(C)C; Sar = CNCC(=O)O

With `Cc1c2oc3c(C)ccc(C(=O)N[C@@H]4C(=O)N[C@H](C(C)C)C(=O)N5CCC[C@H]5C(=O)N(C)CC(=O)N(C)[C@@H](C(C)C)C(=O)O[C@@H]4C)c3nc-2c(C(=O)N[C@@H]2C(=O)N[C@H](C(C)C)C(=O)N3CCC[C@H]3C(=O)N(C)CC(=O)N(C)[C@@H](C(C)C)C(=O)O[C@@H]2C)c(N)c1=O` [Actinomycin D, reference compound] (I: T[dV]P[Sar][NMeV] / II: T[dV]P[Sar][NMeV]; ester I:1-I:C, II:1-II:C; linker I:N-II:N via Actinocin(9to1)), the MEPCE expression result with MEPCE [1] was “reduces the expression of MEPCE”.
Regarding `N[C@H]1CC[C@H](Nc2cc(-c3cccc(NCc4cccc(F)c4)n3)c(Cl)cn2)CC1` [CDKI(8)], the MEPCE expression entry in the assay with MEPCE [1] was “reduced”. Further, the “expression of MCL1 protein” value in the assay on MCL1 protein (2 hours after treatment) was “reduced”; in the assay with MCL1 protein (after 16 hour exposure) it was “further reduced”.
Consider `COC[C@@H](C)N[C@H]1CC[C@H](Nc2cc(-c3cccc(NCC4(C#N)CCOCC4)n3)c(Cl)cn2)CC1` [CDKI(12)], for which the “MEPCE mRNA regulation” value with MEPCE [2] (0.1 mg/kg, FIG. 9, 0.1 mg/kg) was “less down regulation; also recorded: clear down regulation”; with MEPCE [2] (0.15 mg/kg, FIG. 9) it was “clear down regulation”. Also, the “MEPCE mRNA level at 4 and 8 hours” value in the assay with MEPCE [2] (0.15 mg/kg, 4 and 8 hours) is reported as “reduced”. Further, the “MEPCE mRNA level by 24 hours” value with MEPCE [2] (0.15 mg/kg, 24 hours) was “returns to pretreatment levels”. Moreover, the “MYC mRNA regulation” value in the assay on MYC was “does not show any significant down regulation; also recorded: not significantly down regulated”. Further, the “MCL1 mRNA regulation” value with MCL1 was “does not show any significant down regulation; also recorded: not significantly down regulated”.

The values are drawn from patent US20140005070A1, “MARKERS ASSOCIATED WITH CYCLIN-DEPENDENT KINASE INHIBITORS” (Novartis AG, priority 2011, published 2014).
